Results taken from patent US7868026B2, “Therapeutic compounds” (Pfizer Inc., priority 2005, dated 2011).
Read-outs that look alike come from different tables or passages of the source.

Columns and labels:
Format in all cases: biochemical
CYP3A4 [1] = biological target: T1, CYP3A4 (Homo sapiens, UniProt P08684); assay: Determination of IC50 against CYP3A4 by measurement of inhibition of midazolam metabolism (human liver microsomes, 1-hydroxymidazolam by LC-MS/MS); parameters: 0.1 mg/mL human liver microsomes; details: 2 μM midazolam, 0.1 mg/mL human liver microsomes
Summary of the method: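 Human liver microsomes (0.1 mg/mL) incubated 8 min with 2 μM midazolam and 1 mM NADPH in 100 mM potassium phosphate, pH 7.4. 1-Hydroxymidazolam quantified by LC-MS/MS (MRM) as peak area ratio to internal standard against a metabolite standard curve.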

CYP3A4 [2] = biological target: T1, CYP3A4; assay: Determination of IC50 against CYP3A4 by measurement of inhibition of testosterone metabolism (human liver microsomes, 6-β-OH-testosterone by LC-MS/MS); parameters: 0.1 mg/mL human liver microsomes; details: read-out: IC50 (Testo.)
Summary of the method: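 Human liver microsomes (0.1 mg/mL) incubated with 25 μM testosterone and 1 mM NADPH in 100 mM potassium phosphate, pH 7.4, for eight minutes. 6-β-OH-testosterone measured by LC-MS/MS in MRM mode against an internal standard and quantified from a metabolite standard curve.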

CYP3A4 [3] = biological target: T1, CYP3A4; assay: Determination of compound Kiapp against recombinant CYP3A4 enzyme (BFC fluorescent substrate)
Summary of the method: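 Recombinant CYP3A4 (5.5 or 8 nM, with or without b5 depending on source) pre-incubated with inhibitor ≥30 min at room temperature in 100 mM sodium phosphate pH 7.0, 5 mM TCEP, 2% DMF. Reaction started with 200 uM NADPH and 5 uM BFC; initial fluorescence rates over 5 min fitted to Morrison tight-binding (non-partial) or Szedlacsek (partial) equations for Kiapp.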

[4] = Baculo. enzyme preparation, read-out: Kiapp (BFC, Baculo.)
[5] = Super. enzyme preparation, read-out: Kiapp (BFC, Super.)

T1 sequence (P08684 whole entry): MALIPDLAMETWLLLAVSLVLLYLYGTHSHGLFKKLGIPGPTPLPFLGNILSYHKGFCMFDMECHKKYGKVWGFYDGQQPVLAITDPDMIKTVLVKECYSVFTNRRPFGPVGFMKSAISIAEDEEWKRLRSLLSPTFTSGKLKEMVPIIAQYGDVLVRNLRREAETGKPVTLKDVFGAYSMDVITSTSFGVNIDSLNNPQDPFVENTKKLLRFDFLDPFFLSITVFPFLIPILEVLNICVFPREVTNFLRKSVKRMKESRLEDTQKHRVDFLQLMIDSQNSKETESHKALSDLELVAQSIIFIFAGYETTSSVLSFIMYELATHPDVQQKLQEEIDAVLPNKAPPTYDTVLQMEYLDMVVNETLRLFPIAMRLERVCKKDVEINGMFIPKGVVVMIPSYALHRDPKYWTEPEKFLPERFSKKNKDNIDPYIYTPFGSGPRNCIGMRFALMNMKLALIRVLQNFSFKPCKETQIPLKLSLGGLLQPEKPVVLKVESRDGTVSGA

Structure (SMILES) | IC50 (CYP3A4 [1]) | IC50 (CYP3A4 [2]) | Ki (CYP3A4 [3]; [4]) | Ki (CYP3A4 [3]; [5])
COc1cncc(NS(=O)(=O)c2ccc(Cl)cc2C(=O)NCCC(C)C)c1 [Example 295, 5-chloro-2-{[(5-methoxypyridin-3-yl)amino]sulfonyl}-N-(3-methylbutyl)benzamide] | 42 nM | 231 nM | 184 nM | 42 nM
CCOc1cncc(NS(=O)(=O)c2ccccc2C(=O)N2CCCC2)c1 [Example 297, N-(5-ethoxypyridin-3-yl)-2-(pyrrolidin-1-ylcarbonyl)benzenesulfonamide] | 170 nM | > 750 nM | 444 nM | 110 nM
CCOc1cncc(NS(=O)(=O)c2ccccc2C(=O)N2CCCC(C)(C)C2)c1 [Example 298, 2-[(3,3-dimethylpiperidin-1-yl)carbonyl]-N-(5-ethoxypyridin-3-yl)benzenesulfonamide] | 31 nM | 135 nM | 58.5 nM | 15.6 nM
CCOc1cncc(NS(=O)(=O)c2ccccc2C(=O)NC(C)C2CC2)c1 (stereo not shown) [Example 299, N-(1-cyclopropylethyl)-2-{[(5-ethoxypyridin-3-yl)amino]sulfonyl}benzamide] | 26 nM | 53 nM | 56.5 nM | 20.6 nM
CCOc1cncc(NS(=O)(=O)c2ccccc2C(=O)NC(C)(C)CC)c1 [Example 300, N-(1,1-dimethylpropyl)-2-{[(5-ethoxypyridin-3-yl)amino]sulfonyl}benzamide] | 16 nM | 39 nM | 57.6 nM | 19.5 nM
CCOc1cncc(NS(=O)(=O)c2ccccc2C(=O)NC2CCCCC2)c1 [Example 302, N-cyclohexyl-2-{[(5-ethoxypyridin-3-yl)amino]sulfonyl}benzamide] | 23 nM | 110 nM | 78.9 nM | 24.5 nM

The next lines start with the values.

IC50 (CYP3A4 [1]) | IC50 (CYP3A4 [2]) | Ki (CYP3A4 [3]; [4]) | Ki (CYP3A4 [3]; [5]) | Structure (SMILES)
4 nM | 16 nM | 14.6 nM | 3.94 nM | CCOc1cncc(NS(=O)(=O)c2ccccc2C(=O)NCc2ccc(F)c(F)c2)c1 [Example 290, N-(3,4-difluorobenzyl)-2-{[(5-ethoxypyridin-3-yl)amino]sulfonyl}benzamide]
21 nM | 27 nM | 4.5 nM | 2.98 nM | CCOc1cncc(NS(=O)(=O)c2ccccc2C(=O)NCc2ccc(Cl)c(Cl)c2)c1 [Example 291, N-(3,4-dichlorobenzyl)-2-{[(5-ethoxypyridin-3-yl)amino]sulfonyl}benzamide]
< 3 nM | 16 nM | 1.6 nM | 0.618 nM | CCOc1cncc(NS(=O)(=O)c2ccccc2C(=O)NCCc2ccccc2C)c1 [Example 292, 2-{[(5-ethoxypyridin-3-yl)amino]sulfonyl}-N-[2-(2-methylphenyl)ethyl]benzamide]
81 nM | 145 nM | 268 nM | 58.1 nM | CCOc1cncc(NS(=O)(=O)c2ccccc2C(=O)NCC2CC2)c1 [Example 293, N-(cyclopropylmethyl)-2-{[(5-ethoxypyridin-3-yl)amino]sulfonyl}benzamide]
24 nM | 57 nM | 135 nM | 32.1 nM | CCOc1cncc(NS(=O)(=O)c2ccccc2C(=O)NC(C)(C)C)c1 [Example 294, N-(tert-butyl)-2-{[(5-ethoxy-pyridin-3-yl)amino]sulfonyl} benzamide]
12 nM | 90 nM | 35.8 nM | 9.32 nM | CCOc1cncc(NS(=O)(=O)c2ccccc2C(=O)NCCC(C)C)c1 [Example 296, 2-{[(5-ethoxypyridin-3-yl)amino]sulfonyl}-N-(3-methylbutyl)benzamide]
140 nM | > 750 nM | 409 nM | 152 nM | CCOc1cncc(NS(=O)(=O)c2ccccc2C(=O)NC2CC2)c1 [Example 301, N-cyclopropyl-2-{[(5-ethoxypyridin-3-yl)amino]sulfonyl}benzamide]
